15 compounds from patent publication US20040229825A1, “Pharmaceutical composition for treatment of infection with drug resistant bacterium and disinfectant” (priority 2003, published 2004) can be followed below.

Each structure is given as a SMILES string. Values after ≈ are worked out from the molar mass of the structure shown. Read-outs that look alike come from different tables or passages of the source. Bounds are passed on as bounds.

Data set [1] concerns MRSA. Nature of the data set: Antibacterial activity of flavonoids on MRSA (agar plate dilution method, MIC). The data set is classed as cell-based, Staphylococcus aureus. The settings on record: flavonoid alone; for MIC50 / MIC90 / MIC / MIC range: MRSA 20 strains; for MIC: 20 h. As to the method:
(§1) MRSA were employed as bacteria to be tested. The antibacterial activity was determined according to the agar plate dilution method defined by Japan Society of Chemotherapy (Chemotherapy 29(1), 76-79(1981)). The employed plate medium for the measurement of sensitivity was semisynthetic medium based on Mueller-Hinton Agar, and the bacteria solution for seeding was prepared by incubating the test bacterium in Mueller-Hinton Broth at 37° C. for 20 hours, followed by diluting in 0.85% saline to give 10^6 CFU/mL. The test samples were produced in two times-serial dilution method. To this plate medium for the measurement of sensitivity, was seeded a bacteria solution with a Micro Planter® (Sakuma Seisakusho). After incubating at 37° C. for 20 hours, a minimum inhibitory concentration (MIC) was determined. […] In addition, MIC50 indicates a concentration yielding the proliferation inhibitory effect in 50% of total number of MRSA strains, whilst MIC90 indicates a concentration yielding the proliferation inhibitory effect in 90% of total number of MRSA strains.

The nature of data set [2]: Dissolution of rutin (auxiliary effects of L-arginine hydrochloride and L-cysteine); solubility in water. The data set is classed as physicochemical. On the procedure: To the solution B, is added 3.5 mL of the solution A. After adjusting the pH of the mixture to 8.5 with HCl, the mixture is filtered to give an injectable.
For data set [3], the system named is MRSA. The experiment in a line: Enhancement of the antibacterial activity of methicillin by various flavonoids on MRSA. The data set is classed as cell-based, Staphylococcus aureus. The following applies: methicillin alone. On the procedure:
as §1
Antibacterial Activities of Methicillin on MRSA with 50 μg/mL of Various Flavonoids

Data set [4] relates to MRSA. The experiment in a line: Enhancement of the antibacterial activity of various antibiotics by flavone on MRSA. The settings on record: for MIC: Staphylococcus aureus, antibiotics alone; for MIC +flavone: addition of 50 μg/mL of flavone. The data set is classed as cell-based, Staphylococcus aureus. On the procedure:
as §1
Antibacterial Activities of Various β-Lactam Antibiotics on MRSA with 50 μg/mL of Flavone

The test system of data set [5] is penicillinase producing Staphylococcus aureus. The experiment in a line: Effects of flavone in combination with benzylpenicillin or methicillin on penicillinase producing Staphylococcus aureus. The data set is classed as cell-based. The settings on record: antibiotic alone. As to the method:
as §1
The effects of flavone in combination with benzylpenicillin or methicillin on penicillinase producing Staphylococcus aureus are shown in Table 4.
Effects of Flavone in Combination with Benzylpenicillin or Methicillin on Penicillinase Producing Staphylococcus aureus.

The subject of data set [6] is MRSA infected mouse. Nature of the data set: Antibacterial activity on MRSA infected mouse (survival rate after 5 days). The data set is classed as in vivo. As to the method:
MRSA was incubated with Brain-Heart Infusion medium at 37° C. for 18 hours, and then the bacteria were collected and washed, followed by resuspension in saline. The suspension was admixed in an aqueous 5% gastric mucin solution and the concentration was adjusted to a predetermined value. Then, 0.2 mL of the mixture was intraperitoneally administered to an ICR strain SPF mouse. At one hour after the infection, various concentrations of β-lactam agents and rutin (0.2 mL) was subcutaneously administered, and survival rate was analyzed after 5 days and thus the effectiveness was evaluated. In addition, the effectiveness by oral administration (0.2 mL) was evaluated and various concentrations of β-lactam agents and rutin (0.2 mL) were administered using a gastric probe 1 hour or 5 hours prior to the infection.

Where [7] appears, read: Staphylococcus aureus, read-out: MIC50.
[8] abbreviates: Staphylococcus aureus, read-out: MIC90.

For orientation: MIC50 means an inhibitory concentration at the 50% level, which refers to growth in some studies and to a panel of isolates in others. A word on the MIC90: it is an inhibitory concentration at the 90% level, which refers to growth in some studies and to a panel of isolates in others. For the compound `Oc1cc(O)c2cc(O)c(-c3ccc(O)c(O)c3)[o+]c2c1` [cyanidin], the MIC50 in data set [1] (setting [7]) was 250 µg/mL. Also, in data set [1] (setting [8]), the MIC90 was over 500 µg/mL.
The term MIC denotes the smallest concentration in the dilution series that meets the test's criterion for growth inhibition. Consider `O=c1c(O)c(-c2ccc(O)c(O)c2)oc2cc(O)ccc12` [fisetin], for which the MIC in data set [1] (Staphylococcus aureus) fell in the range of 62.5 to 125 µg/mL (≈ 218 to 437 µM). For the same compound, in data set [1] (setting [7]), the MIC50 came to 125 µg/mL (≈ 437 µM). Also, the MIC90 in data set [1] (setting [8]) came to 125 µg/mL (≈ 437 µM). In addition, the “antibacterial activity on MRSA (in words)” value in data set [1] was “potent antibacterial activity”.
With `O=c1cc(-c2ccccc2)oc2ccccc12` [flavone], in data set [1] (setting [7]), the MIC50 stood at 62.5 µg/mL (≈ 281 µM). Further, the MIC90 in data set [1] (setting [8]) came to 125 µg/mL (≈ 562 µM). Also, in data set [2], the “solubility in water (in words)” value was “insoluble in water”.
As for `O=C1c2ccc(O)cc2O[C@H](c2ccc(O)c(O)c2)[C@H]1O` [fustin], the MIC50 in data set [1] (setting [7]) was 500 µg/mL (≈ 1730 µM). For the same compound, in data set [1] (setting [8]), the MIC90 was found to be 500 µg/mL (≈ 1730 µM).
Take `COc1ccc(-c2oc3cc(O)cc(O)c3c(=O)c2O)cc1` [kaempferid]: in data set [1], the MIC50 came out at 125 µg/mL (≈ 416 µM), the MIC90 worked out at 125 µg/mL (≈ 416 µM), the MIC range was 15.6 to 125 µg/mL and the “antibacterial activity on MRSA (in words)” value is listed as “potent antibacterial activity”.
For `O=C1C[C@@H](c2ccc(O)cc2)Oc2cc(O)ccc21` [liquiritigenin], in data set [1], the MIC50 was determined as 500 µg/mL (≈ 1950 µM), the MIC90 turned out to be 500 µg/mL (≈ 1950 µM) and the MIC range was in the range of 250 to 500 µg/mL.
In the case of `COc1cccc(OC)c1C(=O)N[C@@H]1C(=O)N2[C@@H]1SC(C)(C)[C@@H]2C(=O)O` [methicillin], the values for the MIC in data set [3] (Staphylococcus aureus), in data set [4] and in data set [5] were 1020 µg/mL, 1020 µg/mL and 0.98 µg/mL, respectively. The MIC of methicillin in data set [3] came to 1024 µg/mL. Besides, the “MIC +flavone” value in data set [4] amounted to 4 µg/mL.
As to `O=c1c(O)c(-c2ccc(O)cc2O)oc2cc(O)cc(O)c12` [morin], in data set [1] (setting [7]), the MIC50 was 500 µg/mL (≈ 1650 µM). The MIC90 in data set [1] (setting [8]) is over 500 µg/mL.
In data set [1] (Staphylococcus aureus), `O=c1c(O)c(-c2cc(O)c(O)c(O)c2)oc2cc(O)cc(O)c12` [myricetin] registered an MIC of 250 to 500 µg/mL (≈ 786 to 1570 µM). Moreover, in data set [1] (setting [7]), the MIC50 was found to be 500 µg/mL (≈ 1570 µM). The MIC90 in data set [1] (setting [8]) worked out at 500 µg/mL (≈ 1570 µM).
Turning to `O=C1C[C@@H](c2ccc(O)cc2)Oc2cc(O)cc(O)c21` [naringenin], the MIC50 in data set [1] (setting [7]) was found to be 500 µg/mL (≈ 1840 µM). Besides, the MIC90 in data set [1] (setting [8]) is over 500 µg/mL.
For `Cc1onc(-c2ccccc2)c1C(=O)N[C@@H]1C(=O)N2[C@@H]1SC(C)(C)[C@@H]2C(=O)O` [oxacillin], in data set [4], the MIC stood at 512 µg/mL. Moreover, the “MIC +flavone” value in data set [4] came to 1 µg/mL. The survival rate was found to be 20% in data set [6] (antibiotic alone, 0.5 mg/mouse, after 5 days); 0% in data set [6] (antibiotic alone, 1 mg/mouse, after 5 days); 20% in data set [6] (antibiotic alone, 5 mg/mouse, after 5 days); 20% in data set [6] (antibiotic alone, 10 mg/mouse, after 5 days); 0% in data set [6] (antibiotic alone, 15 mg/mouse, after 5 days); 20% in data set [6] (oral, antibiotic 10 mg/mouse with rutin 5 mg/mouse). For the same compound, the survival rate was 20% in data set [6] (oral, antibiotic 10 mg/mouse with rutin 10 mg/mouse); 40% in data set [6] (oral, antibiotic 15 mg/mouse with rutin 5 mg/mouse); 40% in data set [6] (oral, antibiotic 15 mg/mouse with rutin 10 mg/mouse); at most 20% in data set [6] (oxacillin alone, all doses); 40% in data set [6] (subcutaneous, antibiotic 10 mg/mouse with rutin 5 mg/mouse); 80% in data set [6] (subcutaneous, antibiotic 10 mg/mouse with rutin 10 mg/mouse). Moreover, the survival rate in data set [6] (subcutaneous, antibiotic 15 mg/mouse with rutin 5 mg/mouse) turned out to be 60%; in data set [6] (subcutaneous, antibiotic 15 mg/mouse with rutin 10 mg/mouse), 60%.
Regarding `Oc1ccc(-c2[o+]c3cc(O)cc(O)c3cc2O)cc1` [palagonidin], in data set [1] (Staphylococcus aureus), the minimum inhibitory concentration (MIC) amounted to 250 µg/mL. Besides, the MIC50 in data set [1] (setting [7]) was determined as 250 µg/mL. Moreover, in data set [1] (setting [8]), the MIC90 was determined as 250 µg/mL.
With `CC(=N)N1CC[C@H](SC2=C(C(=O)O)N3C(=O)[C@H]([C@@H](C)O)[C@H]3C2)C1` [panipenem], in data set [4], the MIC came out at 64 µg/mL and the “MIC +flavone” value stood at 0.002 µg/mL.
As for `CC(Oc1ccccc1)C(=O)N[C@@H]1C(=O)N2[C@@H]1SC(C)(C)[C@@H]2C(=O)O` (some centres unmarked) [phenethicillin], in data set [4], the MIC is 128 µg/mL and the “MIC +flavone” value stood at 16 µg/mL.
`O=C(CCc1ccc(O)cc1)c1c(O)cc(O)cc1O` [phloretin]: in data set [1] (Staphylococcus aureus), the MIC was 125 to 250 µg/mL (≈ 456 to 912 µM). Further, the MIC50 in data set [1] (setting [7]) is 250 µg/mL (≈ 912 µM). In addition, the MIC90 in data set [1] (setting [8]) turned out to be 250 µg/mL (≈ 912 µM).
